One series relates to MDA-MB-468 cells. Put plainly: Annexin-V apoptosis assay, MDA-MB-468 cells. It is filed as cell-based, human. The following applies: alone. The method, then:
FIGS. 72A-72C presents the characterization of combinations on TNBC cell viability and cell death. Quantitation of Annexin-V staining of MDA-MB-468 cells treated with either 10 μM evoxine, 10 μM citropten, 0.25 μM 11-Cl-BBQ, or corresponding combinations for 72 hours (A and B, respectively). Quantifications represent averages of three independent experiments. C) Colony forming assay of MDA-MB-468 AhR-expressing and AhR KO cells treated with 100 nM Evoxine, 500 nM Citropten, […] 11-Cl-BBQ, or combinations of each compound with 11-Cl-BBQ.
Annexin-V staining was performed 48 hours post-treatment by harvesting cells (floating and attached) with trypsin, followed by addition of serum-containing media, and two washes with ice-cold PBS. Cells were stained with Annexin-V-PerCP conjugates (eBioscience, Waltham, MA, USA) for 15 minutes on ice before washing out residual stain and resuspending in 300 μL of binding buffer. 10,000 events were collected per sample. Data was acquired with a CytoFLEX S flow cytometer (Beckman Coulter, Brea, CA), and analyzed using the CytExpert software (Beckman Coulter).

The subject of another series is cancer cell line. Put plainly: Cell viability of combinations of AhR ligand and synergizer (FIGS. 51, 52). The following applies: for cell viability, monotreatments: alone (FIG. 51); for cell viability, mono-applications: alone (FIG. 52). It is filed as cell-based. As for the experimental part:
FIG. 51 provides data from cancer cell line trials using 11-Cl-BBQ alone, Evoxine alone, Citropten alone, and combinations comprising 11-Cl-BBQ and Citropten and 11-Cl-BBQ and Evoxine. […] The decrease in cell viability was more than additive. Specifically, for Evoxine in combination with Analog 523, the reduction in cell viability was: 31% at 1 μM; 41% at 3 μM; and 42% at 10 μM. For Citropten in combination with Analog 523, the reduction in cell viability was: 16% at 1 μM; 34% at 3 μM; and 43% at 10

The next series relates to lung cancer cells. Nature of the series: Viability of lung cancer cell lines (CellTiter Glo). As to conditions: 10 nM to 10 μM, 72 hours. It is filed as cell-based, human. The method, then: Cancer cells were seeded in 96-well plates at a density of 3,000 cells per well in their optimal culture medium supplemented with 1% FBS overnight, then compounds were added at indicated concentrations and incubated for 72 hours; otherwise, different treatment times will be specified. Cell viability was measured using the ATP-based CellTiter Glo assay (Promega-Madison, WI) following the manufacturer's protocol. Luminescent signals were recorded using the Tropix TR717 microplate luminometer. The viability of cultures following each treatment was normalized to vehicle treatment (0.1% DMSO (v/v)).
On the technique in general: In ATP-based viability assays light output follows the ATP content of the culture.

A short description of series [1]: Dose studies in mice, serum concentration. It is filed as in vivo, mouse.
The test system of series [2] is H460 cells. Put plainly: Senescence-associated beta-galactosidase staining, H460 cells. It counts as cell-based, human. The method, then:
H460 cells were seeded at 2×10^5 cells/well in 6-well plate overnight and treated with indicated compounds for 5 days. Media and treatments were refreshed on the […]. Cells were stained for senescence-associated β-galactosidase (SA-βgal) using 5-dodecanoylaminofluorescein di-β-D-galactopyranoside (C12FDG). Briefly, media were aspirated and replaced with fresh media containing 0.1 μM bafilomycin A1 (Calbiochem) and incubated for 1 hour in cell culture incubator. C12FDG (Setare Biotech) was added with a final concentration of 33 μM and incubated for another hour. Fluorescent signal was recorded using CytoFlex S cytometer for 10,000 cells per sample.

For the next series, the system named is p53. Nature of the series: Western blot of p53 protein levels in H460 cells. It counts as cell-based, human. As for the experimental part:
Whole cell lysate was prepared in RIPA lysis buffer with 1× Laemmli buffer, then denatured by heating at 100° C. for 5 minutes. Denatured proteins were separated in SDS-PAGE gel and transferred onto PVDF membrane. The PVDF membrane was incubated in TBST with 5% nonfat dry milk for one hour at room temperature prior to incubating with primary antibody of interest overnight at 4° C. with gentle rotation. Appropriate horse radish peroxidase conjugated secondary antibody was applied for one hour at room temperature. Signal was developed by applying SuperSignal West Pico chemiluminescence substrate and captured using the ChemiDoc imaging instrument. Primary antibodies used in this study: anti-AHR antibody (BML-SA210-Enzo Biochem, Farmingdale, NY), anti-p27^Kip1 antibody (610242-BD Biosciences), anti-p53 antibody (DO-1 sc-126-Santa Cruz Biotechnology, Dallas, TX), anti-p21 antibody (2947S-Cell Signaling Technology, Danvers, MA), and anti-GAPDH antibody (sc-36502, Santa Cruz).
On the technique in general: A western blot detects proteins with antibodies after separation by electrophoresis.

For the next series, the system named is HepG2 cells. Nature of the series: Colony forming assay, HepG2 cells. It counts as cell-based, human. The following applies: alone. As for the experimental part: FIGS. 75A-75C compare the effects of 11-Cl-BBQ and Evoxine in hepatoma: A) Mouse Hepa-1 cells were treated with 11-Cl-BBQ, Evoxine either alone or in combination for 48 hours before assessing cell viability using Cell-Titer Glo Viability Assay. B) Hepa-1 cells treated with Evoxine, 11-Cl-BBQ either alone or in combination for 48 hours with induction of cell death measured by Annexin-V staining and detection by flow cytometry. C) Colony forming assay of HepG2 human hepatocellular carcinoma cells seeded at 300 cell/well in a 24-well plate before treatment with 11-Cl-BBQ, Evoxine either alone or in combination at the indicated concentrations for two weeks, followed by fixation and staining with methylene blue. Quantitation of colonies is shown on the right.
Cells were seeded at a density of 500 cell/well in triplicate in 6-well plates, and the following day, cells were treated with compounds and allowed to incubate for 2-3 weeks before fixation with 50% ethanol/water solution containing 0.1% methylene blue overnight. Colonies were counted manually, or with OpenCFU colony counting software, Images were acquired on a ChemiDoc imaging instrument.

Series [3] relates to H460 cells. Put plainly: Annexin V staining, H460 cells. It is filed as cell-based, human. As to conditions: 1 and 10 μM, 72 hours. As for the experimental part:
[…] Cells were stained with Annexin-V-PerCP conjugates (eBioscience, Waltham, MA, USA) for 15 minutes on ice before washing out residual stain and resuspending in 300 μL of binding buffer. 10,000 events were collected per sample. Data was acquired with a CytoFLEX S flow cytometer (Beckman Coulter, Brea, CA), and analyzed using the CytExpert software (Beckman Coulter).

Series [4] relates to H460 cells. Put plainly: Zebrafish tumor xenograft assay with pre-treated H460 cells. As to conditions: cells exposed to 1 μM or 5 μM for 72 hours, washed out; days 1 and 4 post-injection; AhR-expressing cells. It counts as in vivo. The method, then: H460 AHR wildtype (CR-V2) and knockout (CR-AHR3) cells were treated with 11-Cl-BBQ (1 and 5 μM) or 0.1% DMSO as vehicle control for 72 hours in RPMI media supplemented with 1% FBS. Cells were trypsinized, dyed with cell viable dye CM-Di1 (Thermofisher), and micro-injected into zebrafish embryos. The growth cancer xenografts were monitored at one day and four days post injection. Zebrafish were housed at the Sinnhuber Aquatic Research Laboratory at Oregon State University (Corvallis, OR, USA), and experiments were conducted according to Institutional Animal Care and Use Committee protocols.

Series [5] relates to H460 cells. Put plainly: Cell cycle analysis, H460 cells. It is filed as cell-based, human. The following applies: 2.5 μM, 24 hours. The method, then: Cells were harvested by applying trypsin-EDTA then washed twice with phosphate-buffered saline (PBS) solution, fixed with 70% ethanol for 15 minutes at room temperature and kept at −20° C. overnight. Fixed samples were washed twice with PBS and stained with Hoechst 33258 (Invitrogen, Carlsbad, CA) at the final concentration of 1 μg/ml in the 0.1% Triton X-100/PBS for 20 minutes at room temperature. DNA content was analyzed by flow cytometer for 10,000 cells per sample, singlets population was selected for further analysis and cell cycle was assigned by fitting the DNA content into Dean-Jett-Fox model using FlowJo software.

Series [6] deals with H460 cells. Put plainly: Colony forming assay, H460 cells. It is filed as cell-based, human. The following applies: 0.1-10 µM, 14 days. As for the experimental part:
H460 cells were seeded in 6-well plates at a density of 200 cell per well in complete growth media. 11-Cl-BBQ or DMSO were added the following day as indicated concentrations for two weeks in 1% FBS RMPI media, media and treatments were replenished twice a week. Cell colonies were fixed and stained with methylene blue in 50% ethanol solution overnight. Pictures of cell colonies were captured using the ChemiDoc imaging instrument, and quantified using OpenCFU software.

Another series deals with AhR. Nature of the series: Xenobiotic response element (XRE) driven reporter in Hepa-1 cells, AhR activation. It is filed as cell-based, mouse. As for the experimental part: FIGS. 69A-69D show representative 11-Cl-BBQ analogs (848 and 849) as non-classical AHR ligands. (A) Stability of AHR protein in the H460 whole cell lysate in the presence or absence of 11-Cl-BBQ (5 μM), PRXS-848 (10 μM), and PRXS-849 (10 μM) at the indicated temperatures; GADPH was used as a loading control. (B) Localization of AHR protein in the H460 treated with 11-Cl-BBQ (100 nM), PRXS-848 (250 nM), PRXS-849 (250 nM), or vehicle control (0.1% DMSO) for two hours; top horizontal panel: AHR protein staining using an AHR-specific antibody conjugated with FITC (green) fluorophore; middle panel: DAPI staining; bottle panel: overlaid images from the top panel and the middle panel in the same column. (C) AHR activation (measured by XRE-luciferase reporter assay in Hepa1 cells) of the parental lead 11-Cl-BBQ and analogs PRXS-848 and PRXS-849 at the indicated concentrations for 16 hours. (D) AHR activation of 11-Cl-BBQ cotreated with a known AHR antagonist CH223191 (1 μM) or 11-Cl-BBQ analogs PRXS-848 and PRXS-849 at the indicated concentrations for 16 hours.
FIG. 76 presents representative AhR compounds (BBQ analogs) of the invention effective for activation of AhR transcription. Activation values greater than 1 at 100 nM were considered a hit with nanomolar affinity to promote AhR activity and synergize with the identified compounds from the synergy screens. Referring to FIG. 76, Fold@ 1 nM refers to activation of AhR transcription at 1 nM; Fold@100 nM refers to activation of AbR transcription at 100 nM; and Fold rel @ 100 refers to relative activation at 100 nM compared to parental compound, 11-Cl-BBQ. The representative AhR ligand compounds presented in FIG. 76 activate AhR transcription and therefore are useful as anti-cancer agents, either alone or in combination with the synergizing compounds (and chemotherapeutic agents) described herein.
was identified as a top hit compound based on its potent (>50% inhibition at 0.1 μM), and selective activity against AhR WT cells versus AhR KO cells (>70% difference between WT and KO cells at 10 μM) (FIG. 11). […] This confirmed Analog 523 activates AhR-mediated transcription and functions as an AhR ligand.

Consider `O=c1c2cccc3cccc(c32)c2nc3cc(Cl)ccc3n12` [Analog 11-Cl-BBQ], for which the “apoptotic response (Annexin-V staining)” value in the series with MDA-MB-468 cells (0.25 μM) is listed as 7.3%. The “cell viability, monotreatments” value in the series with cancer cell line is “little effect”. The “growth of lung cancer cells” value in the series on lung cancer cells is “decreased the growth of lung cancer cells in a dose-dependent manner”. In addition, the “concentration detected in mouse serum” value was “up to 1.6 μM” in series [1] (2 mg/Kg intravenous administration) and 3000 nM in series [1] (8 mg/Kg oral administration). In the series on H460 cells [2] (2.5 μM for 120 h, AhR-dependent), the SA-β-gal expression result is reported as “significant increase in SA-β-gal expression”. Besides, in the series on p53 (5 μM, from 4 h, further at 6 and 9 h), the p53 protein levels result is “increased p53 protein levels”. Moreover, in the series on HepG2 cells (10 μM), the HepG2 colony formation entry is reported as “little effect on colony formation inhibition”. In the series with H460 cells [3], the “Annexin V staining (cell death)” value is listed as “negative for Annexin V staining”. The “growth of cancer cell xenografts” value in the series with H460 cells [4] is “significantly lower growth”. Further, the “cells in S-phase” value in the series on H460 cells [5] (vehicle 35%) came to 15%. For the same molecule, the “cells in G1 phase” value in the series on H460 cells [5] (vehicle 45%) was > 70%. For the same molecule, in the series with H460 cells [6], the “colony formation of AhR-expressing H460 cells” value is recorded as “strongly inhibited colony formation”.

In the case of `COc1cc(OC)c2ccc(=O)oc2c1` [Citropten, citropten], in the series on MDA-MB-468 cells (10 μM), the “apoptotic response (Annexin-V staining)” value is 2.7%. In the series with cancer cell line, the “cell viability, monotreatments” value was “little effect” and the “cell viability, mono-applications” value is “largely ineffective in reducing cell viability”.

With `COc1c2ccoc2nc2c(OC)c(OC[C@@H](O)C(C)(C)O)ccc12` [Evoxine], in the series on MDA-MB-468 cells (10 μM), the “apoptotic response (Annexin-V staining)” value was found to be 0.5%. Moreover, in the series with cancer cell line, the “cell viability, monotreatments” value is recorded as “little effect” and the “cell viability, mono-applications” value is “largely ineffective in reducing cell viability”. The HepG2 colony formation entry with HepG2 cells (2.5 μM) was “little effect on colony formation inhibition”.

As for `COC(=O)c1ccc2c(c1)nc(-c1cccc3ccccc13)n2C(=O)c1ccc(F)c(F)c1` [PRXS-848], the “activation of AhR transcription (FIG. 76)” value in the series on AhR is given as “did not activate AhR”.

With `COC(=O)c1ccc2nc(-c3cccc4ccccc34)n(C(=O)c3ccc(F)c(F)c3)c2c1` [PRXS-849], the “activation of AhR transcription (FIG. 76)” value in the series on AhR is “did not activate AhR”.

Consider `Clc1cc2c(cc1Cl)Oc1cc(Cl)c(Cl)cc1O2` [TCDD, reference compound], for which the “expression of p53 protein” value with p53 (TCDD 30 nM) is recorded as “not altered”.

As to `COc1cccc2c1C(=O)c1c(O)c3c(c(O)c1C2=O)C[C@@](O)(C(=O)CO)C[C@@H]3O[C@H]1C[C@H](N)[C@H](O)[C@H](C)O1` [doxorubicin, reference compound], in the series with H460 cells [2] (Dox 50 nM, 5 days), the SA-β-gal expression entry is recorded as “induced SA-β-gal expression independent of the AhR status”.

Values taken from patent publication US20260007652A1, “Selective Modulators of AhR-Regulated Transcription and Method for Using Such Modulators to Treat Cancer” (OREGON STATE UNIVERSITY, priority 2022, published 2026).
